Laboratory results published in paper PMC5826917, “A small molecule inhibitor of Nicotinamide N-methyltransferase for the treatment of metabolic disorders” (Scientific Reports, 2018).

Assays:
[1] = system: endogenous NNMT activity in U2OS cells; experiment: Cell based U2OS assay (MNA levels by LC-MS/MS); conditions: Homo sapiens, 24 h treatment
Procedure: (§1) PE-Sciex API-4000 triple quadrupole (PerkinElmerSciex Instruments, Boston, MA) mass spectrometer was employed for this analysis. […] Detection of the ions was performed in the multiple reaction monitoring (MRM) mode, monitoring the transition of the m/z 137 precursor ion to the m/z 92 product ion for MNA and m/z 141 precursor ion to the m/z 84 product ion for d4-MNA (internal standard).
(§2) The supernatant was separated and transferred to pre-labeled HPLC vials and analyzed by LC-MS/MS system.

[2] = system: mice with diet-induced obesity (DIO); experiment: Chronic efficacy study in diet-induced obesity (DIO) mice; type: in vivo, C57BL6/N mice
Procedure: Samples for MNA were analyzed employing a fit-for-purpose LC-MS/MS method. PE-Sciex API-4000 triple quadrupole (PerkinElmerSciex Instruments, Boston, MA) mass spectrometer was employed for this analysis. Samples (5 µL) were injected onto Kinetex HILIC (50 × 4.6 mm, 2.6 µm; Phenomenex, Torrance, CA, USA) column connected to Shimadzu VP (Shimadzu, Japan) LC system. The gradient mobile phase mixture of 0.2% formic acid and acetonitrile was delivered at a flow rate of 0.45 ml min-1 into the mass spectrometer electrospray ionization (ESI) chamber. Quantitation was achieved by MS/MS detection in positive ion mode for MNA and internal standard (d4–MNA). Detection of the ions was performed in the multiple reaction monitoring (MRM) mode, monitoring the transition of the m/z 137 precursor ion to the m/z 92 product ion for MNA and m/z 141 precursor ion to the m/z 84 product ion for d4-MNA (internal standard).
A simple protein precipitation extraction method was followed for extraction of N-methylnicotinamide from plasma and various tissue homogenate samples. The tissue samples were homogenized with 1:3 proportions of phosphate buffer saline (PBS) and this homogenate was used for N-Methylnicotinamide determinations. To an aliquot of ~50 μL of plasma/ liver homogenate/ adipose tissue homogenate samples ~300 µl of acetonitrile containing IS (d4-MNA) solution was added, followed by vortex for ~3 minutes and centrifuged for 10 minutes at 14,000 rpm. The supernatant was separated and transferred to pre-labeled HPLC vials and analyzed by LC-MS/MS system.
Male C57BL6/N (Vivo Bio Tech Ltd, India), ob/ob (B6.V-Lepob/OlaHsd) and its lean control (Envigo laboratories Inc, USA) and db/db (BKS.Cg- + Leprdb/ + Leprdb/OlaHsd) and its lean control (Envigo laboratories Inc, USA) were housed in individually ventilated cages (n = 5/cage) under standard laboratory conditions. The study room environment was maintained at a temperature of 21–24 °C and, relative humidity at 40–70%. The animal rooms were maintained under 12 h light and dark cycle. Animals were provided with ad libitum access to water and food (except where noted otherwise, e.g. during fasting prior for glucose tolerance tests, fasting prior to terminal sacrifice). Animals were acclimatized for 1 week before initiation of studies. For Diet induced obesity (DIO) mice study, C57BL6/N mice were maintained on rodents chow diet (Teklad; Harlan) or HFD (60% Kcal; Research diet) for 14 weeks before study initiation and throughout the study period. ob/ob and db/db mice and their lean controls were maintained on rodents chow diet (Teklad; Harlan). All the experiments were approved by Institutional Animal Ethics Committee (IAEC) of Jubilant Biosys Ltd, India.
Lean control + Vehicle and HFD + Vehicle Control groups (G1 and G2) mice were administered with vehicle. Dose formulations of HFD + JBSNF-000088, 50 mg kg^−1, po, bid were administered at dose volume of 5 mL kg^−1 body weight to G3 mice. Similar pattern was followed for ob/ob mice and db/db mice studies. The dose volume for individual animals was calculated based on the most recently recorded body weight during the study period. […] Cage side observations of animals for visible clinical signs, was carried out once daily throughout the study period. Individual animal body weights were recorded twice weekly during the study period.
The ob/ob mice were 12 weeks of age at the start of the study and db/db mice were 8 weeks of age at the start of the study. DIO mice were 20 weeks of age at the start of the study. In each study, non-diabetic lean mice comprised the control group which received vehicle (0.5% w/v HEC and 0.5% v/v Tween 80) and obese or diabetic mice were randomly assigned to two groups based on body weight and unfasted glucose which received either vehicle (0.5% w/v HEC and 0.5% v/v Tween 80) or JBSNF-000088, 50 mg kg^−1, po, bid for 30 days.

[3] = biological target: Muscarinic Receptor 2 (CHRM2) (Homo sapiens, UniProt P08172); experiment: Selectivity panel: CHRM2; type: cell-based
Muscarinic Receptor 2 (CHRM2), sequence (P08172 whole entry): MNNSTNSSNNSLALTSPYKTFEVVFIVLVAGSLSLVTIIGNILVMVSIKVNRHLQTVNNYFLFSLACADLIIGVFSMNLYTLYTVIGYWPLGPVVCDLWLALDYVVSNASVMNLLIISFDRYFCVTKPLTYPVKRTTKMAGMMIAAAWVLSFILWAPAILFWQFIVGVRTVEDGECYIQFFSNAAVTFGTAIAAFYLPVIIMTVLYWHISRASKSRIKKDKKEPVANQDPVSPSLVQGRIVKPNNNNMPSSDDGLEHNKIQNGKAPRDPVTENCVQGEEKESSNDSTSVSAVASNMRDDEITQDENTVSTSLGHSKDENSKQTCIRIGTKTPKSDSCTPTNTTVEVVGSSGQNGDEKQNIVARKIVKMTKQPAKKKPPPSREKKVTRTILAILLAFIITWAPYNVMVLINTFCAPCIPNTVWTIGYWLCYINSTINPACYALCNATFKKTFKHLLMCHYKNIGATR
Procedure: (§3) Supplement 41598_2018_22081_MOESM1_ESM.docx, table 2: Supplementary table 2: Selectivity profile of JBSNF-000088 (at 10 µM) vs a panel of 34 receptors, channels and enzymes. | column: E% (agonistic); I% (antagonistic or inhibitory)

[4] = biological target: Opioid Receptor mu (OPRM1) (Homo sapiens, UniProt P35372); experiment: Selectivity panel: OPRM1; type: cell-based
Opioid Receptor mu (OPRM1), sequence (P35372 whole entry): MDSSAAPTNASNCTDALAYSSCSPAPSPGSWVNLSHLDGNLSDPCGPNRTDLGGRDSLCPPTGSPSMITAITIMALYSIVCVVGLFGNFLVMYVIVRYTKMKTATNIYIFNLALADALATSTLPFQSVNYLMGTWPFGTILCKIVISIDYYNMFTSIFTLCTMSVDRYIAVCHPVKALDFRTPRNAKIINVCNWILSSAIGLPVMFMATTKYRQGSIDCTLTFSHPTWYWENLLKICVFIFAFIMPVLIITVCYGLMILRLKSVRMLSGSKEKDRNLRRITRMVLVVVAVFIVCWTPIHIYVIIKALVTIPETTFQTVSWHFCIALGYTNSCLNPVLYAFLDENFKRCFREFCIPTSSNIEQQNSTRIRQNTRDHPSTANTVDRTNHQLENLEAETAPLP
Procedure: as §3

[5] = 0.5 h
in vitro = conditions: mouse, microsomes, Metabolic stability mouse microsomes (% remaining)
NNMT = biological target: T1, NNMT (Homo sapiens, UniProt P40261); experiment: biochemical; design: The full length NNMT proteins (1–264 amino acids) of human & mouse; 6 × His tag (N); TEV cleavage site (ENLYFQG) (N); made in house; host or cells: E. coli Rosetta2(DE3)pLysS
T1 sequence (P40261 1-264): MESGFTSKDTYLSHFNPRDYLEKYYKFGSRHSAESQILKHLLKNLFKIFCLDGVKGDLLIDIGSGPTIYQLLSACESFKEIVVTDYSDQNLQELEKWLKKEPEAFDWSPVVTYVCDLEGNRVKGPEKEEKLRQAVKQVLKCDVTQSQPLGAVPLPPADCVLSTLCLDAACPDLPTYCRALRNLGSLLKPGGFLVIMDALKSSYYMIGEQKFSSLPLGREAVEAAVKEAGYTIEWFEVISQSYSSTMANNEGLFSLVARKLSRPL
Procedure: as §1, §2
The final assay reaction mixture contained a buffer of 100 mM Tris Hcl pH 7.5, 0.04% BSA, 2 mM dithiothreitol and 1% DMSO.

**Q.** For COc1ccc(C(N)=O)cn1 [JBSNF-000088, 6-methoxynicotinamide], which IC50 [1] is on record?
**A.** Its IC50 is 1600 nM.

**Q.** And the “body weight (%)” value ([2]; 50 mg kg^−1 b.i.d. p.o., four weeks, vs vehicle)?
**A.** Its value is “statistically significant reduction”.

**Q.** And the cumulative food intake ([2]; 50 mg kg^−1 b.i.d. p.o., vs vehicle)?
**A.** The cumulative food intake was “comparable”.

**Q.** And the fed plasma insulin ([2]; day 14, p < 0.01 vs HFD control)?
**A.** The fed plasma insulin was “trend to a reduction in fed plasma insulin that was statistically significant on day 14”.

**Q.** What about the fed blood glucose ([2]; day 21, p < 0.01 vs vehicle control) of the same compound?
**A.** The fed blood glucose was “statistically significant reduction”.

**Q.** What about the oral glucose tolerance ([2]; day 28, normalized to chow control group) of the same compound?
**A.** The oral glucose tolerance was “statistically significant improvement”.

**Q.** And the “AUC blood glucose (OGTT)” value ([2]; day 28, p < 0.001 vs HFD control)?
**A.** The value was “Significantly lower”.

**Q.** What about the “MNA levels in visceral WAT” value ([2]; p < 0.0001 vs HFD control) of the same compound?
**A.** The value was “statistically significant reduction”.

**Q.** And the “plasma insulin at 0 and 15 minutes of OGTT” value ([2]; p < 0.0001 vs HFD control)?
**A.** The value was “statistically significant lower”.

**Q.** And the HOMA-IR index ([2]; p < 0.0001 vs vehicle-treated HFD controls)?
**A.** Its HOMA-IR index is “statistically significant improvement”.

**Q.** What about the plasma triglyceride ([2]; p < 0.001 vs HFD control, data not shown) of the same compound?
**A.** The plasma triglyceride was “statistically significant reduction”.

**Q.** And the liver triglyceride ([2]; p < 0.05 vs HFD control, data not shown)?
**A.** The liver triglyceride was “statistically significant reduction”.

**Q.** And the “E% (agonistic), CHRM2” value ([3]; 10 µM)?
**A.** Its value is 13%.

**Q.** And the inhibition at 10 µM ([3]; read-out: I% (antagonistic or inhibitory), CHRM2)?
**A.** Its inhibition at 10 µM is 3%.

**Q.** And the “E% (agonistic), OPRM1” value ([4]; 10 µM)?
**A.** Its value is -1%.

**Q.** What about the inhibition at 10 µM ([4]; OPRM1, read-out: I% (antagonistic or inhibitory), OPRM1) of the same compound?
**A.** Its inhibition at 10 µM is -8%.

**Q.** What about the “Metabolic stability human microsomes (% remaining)” value [5] of the same compound?
**A.** Its value is 90%.

**Q.** And the remaining at 0.5 h (in vitro)?
**A.** The remaining at 0.5 h was greater than 70%.

**Q.** What about the IC50 (NNMT) of the same compound?
**A.** Its IC50 is 2400 nM.
